Measurements reported in patent US12473310B2, “Vitamin D3 phosphate and pharmaceutically acceptable salts thereof, pharmaceutical compositions comprising the compound and methods for preparing the compound” (King's College London, priority 2020, dated 2025).
≈ marks a conversion by molar mass, not a printed value. Counter-ions that a name gives are not always drawn.

Key:
[1] = skin permeation and deposition, automated Franz diffusion cell (Example 5); format: in vitro ADME; conditions: PG formulation
Procedure: For the final formulation, 61.5 mg of cholecalciferol phosphate acid in 4.1 mL hexane was added into 1.435 mL DURO-TAK 87-2051 (51.5 w/v %) with 16.4 μL α-tocopherol and 20.5 μL diethylene glycol monoethyl ether. Likewise, 120 mg of cholecalciferol phosphate disodium salt in 35.2 mL MeOH:water (10:1) was added to 1.336 mL of DURO-TAK 87-2051 (51.5 w/v %) in 56 mL ethyl acetate with 32 mg of α-tocopherol and 48 μL diethylene glycol monoethyl ether. Each formulation was spread evenly on the 10×10 cm patch tray and left overnight to dry completely. Following the complete drying of the solvents, the adhesive layer was covered by the M3 Release layer (SCOTCHPAK 9755, UK), compressed, and then cut using a 34 mm circular manual die cutter (SCP Super Cutting Press, UK).
Subsequently, 1 mL aliquots were applied to the skin.
The automated Franz diffusion cell was used to investigate the permeation of cholecalciferol, cholecalciferol phosphate salt and cholecalciferol phosphate acid through porcine skin. Fresh white adult porcine ears were obtained from a local butcher (Ginger Pig, UK). Any damaged ears were discarded. The ears were removed from the carcass after hair removal. […] The collected receiver fluid was analysed by HPLC methods described previously.
At the end of the transport studies, the Franz cells were dismantled, and the donor solution was collected into bottles containing 10 mL of extraction fluid; MeOH for cholecalciferol, cholecalciferol phosphate acid and MeOH:water (90:10) for cholecalciferol phosphate salt, by wiping the surface of the skin and the inside of the donor compartment with two wet and then two dry cotton buds. […] Each collection was analysed by the HPLC method described above. Thus, the amount of each test agent on the surface of the skin, deposited in the skin, and passed into the receiver fluid was determined so that % mass recovery per cm^2 per skin could be calculated and drug deposition profiles could be obtained.

[2] = solubility in donor solution and thermodynamic activity (Table 4); format: physicochemical; conditions: for solubility: organic solvent or mixture, thermodynamic from solid; for Thermodynamic activity: proposed concentration in permeation studies relative to solubility
[3] = physchem; format: physicochemical; conditions: thermodynamic from solid, visual
Procedure: An aliquot of 2.5 mg cholecalciferol and 2.5 mg cholecalciferol phosphate disodium salt prepared according to Example 1 were weighed into glass vials and 100 μL aliquots of the test solvents with different dielectric constants; water, MeOH:water (90:10), ethylene glycol, methanol (MeOH), propylene glycol (PG), ethanol (EtOH), poly(ethylene glycol) (PEG-400), and mineral oil were added until the sample was fully dissolved visually. A precise determination of the solubility was undertaken using high-performance liquid chromatography (HPLC). In the HPLC solubility studies an excess amount of cholecalciferol and cholecalciferol phosphate was added into 2 mL of each test solvent; water, MeOH:water (90:10), MeOH, and PG, EtOH and mineral oil. The solutions were left stirring overnight at room temperature, (RT), 22° C. The saturation of the solutions was confirmed by the visual appearance of crystals and the drug suspensions were filtered through 0.2 μm syringe filters, diluted, and the concentration of each sample was assessed using the HPLC method detailed below.

[4] = physchem; format: physicochemical
Procedure: To validate the method of test agent recovery from the skin, solutions (1.0 mg/mL) of each vitamin D analogue were prepared in 100% PG. The precise concentrations in these samples were analysed by HPLC method described above. To assess the chemical stability of each test agent in the donor solutions used in the Franz cell experiments, 1.0 mg/mL of the samples prepared in 100% PG were incubated in a water bath at 37° C. for 24 h. In addition, to understand the chemical stability of each test agent in the extraction solvents used in the skin deposition studies, 1 mL of the drug sample in 100% PG was added into 10 mL of extraction fluid (MeOH for cholecalciferol, cholecalciferol phosphate acid, and MeOH:water, 90:10 for cholecalciferol phosphate disodium salt). Samples in PG (n=3) and samples in PG with the extraction fluid (n=3) were left in the water bath overnight at 37° C. and the sample concentration was analysed by the HPLC method described above. To assess whether the HPLC fluid had been impacted by any proteins that had leaked out of the skin, PG:water, 80:20 was added to donor and receiver chambers of porcine skin loaded Franz cells (n=3). A 5 mL sample of the receiver fluid was collected, and 25 μL of each test solution was added to this fluid and diluted to MeOH (1:1) and analysed by the HPLC method described previously. To verify the percentage of drug that could be recovered from the skin tissue, the skin sections were dermatomed (1 mm thickness) (n=3). The test solutions were spiked (50 μL) into a sample bottle containing the chopped dermatomed skin tissue. The samples containing the spiked drugs were left for 1 h for the drugs to absorb into the tissues. After the 1 h incubation period, 5 mL of extraction fluid (MeOH for cholecalciferol, cholecalciferol phosphate acid, and MeOH:water, 90:10 for cholecalciferol phosphate disodium salt) was added into each piece of the dermatomed skin tissue, then incubated in a shaking water bath for 1 h. The solutions were then tissue lysed by a tissue lyser for 40 min and homogenised by Ultra Turrax for 1 min and filtered using 0.45 μm syringe filters, centrifuged for 10 min at 13,000 rpm, and analysed by the HPLC method described above. In terms of cholecalciferol phosphate acid, after 1 h incubation and adding 5 mL extraction fluid, immediately the solutions with skin tissues were tissue lysed by a tissue lyser for 15 min. The solutions were then centrifuged for 10 min at 13,000 rpm and the supernatants were analysed by the HPLC method described above.

For `C=C1CC[C@H](OP(=O)(O)O)C/C1=C/C=C1\CCC[C@@]2(C)C1CC[C@@H]2[C@H](C)CCCC(C)C` (stereo partly shown) [Cholecalciferol phosphate disodium salt, cholecalciferol phosphate disodium salt], the “fold higher transdermal permeation through the skin compared to cholecalciferol” value ([1]; phosphate disodium salt) was ~35.02 fold, the solubility ([2]; PG, read-out: Solubility in PG) was 2.5 mg/mL and the Thermodynamic activity [2] was 1.0. The solubility ([3]; organic solvent or mixture) was < 2 mg/mL, the solubility ([3]; water) was < 2.5 mg/mL and the “% Recovery, chemical stability with extraction fluid” value ([4]; 0.091 mg/mL) was 95.18 ± 4.82%. The “% Recovery, chemical stability without extraction fluid” value ([4]; 24 h, 1 mg/mL) was 81.87 ± 2.46%.
In the case of `C=C1CC[C@H](O)C/C1=C/C=C1\CCC[C@]2(C)[C@@H]([C@H](C)CCCC(C)C)CC[C@@H]12` [Cholecalciferol, cholecalciferol, reference compound], the “transdermal permeation through the skin” value ([1]; 1.0 mm porcine skin, 24 h) is reported as 1,245.2 IU, the solubility [2] is reported as 3.15 mg/mL (≈ 8.19 mM) and the Thermodynamic activity [2] is reported as 0.8. For the same compound, the solubility ([3]; oil or lipid) was > 25 mg/mL, the recovery at 0.091 mg/mL [4] was 91.97 ± 0.63% and the recovery at 24 h, 1 mg/mL [4] was 77.5 ± 7.05%.
